Results from patent publication US10751358B2, “Multitargeted nucleoside derivatives” (priority 2017, dated 2020).

Key:
[1] = tested on: human colon cancer HCT-116 cells; assay: HCT-116 xenograft test for in vivo oral anticancer activity; design: species or system mice
From the text: This example provides a description of HCT-116 xenograft test for in vivo oral anticancer activity of 6a.
Forty athymic nude mice (NCr nude, female, 5-6 weeks old, 20-25 g, Taconic) were inoculated with 6×10^6 exponentially growing human colon cancer HCT-116 cells, 1:1 ratio with Matrigel in 100 microliter into the right flank. Over the following 10 days, tumors reached a volume of 70 to 130 mm^3. Tumor volume were caliper-measured and calculated as length×width×width/2. Thirty mice were randomly allocated into three groups: (1) vehicle control group, (2) 6a test group, and (3) capecitabine (Cayman Chemical Co.) positive control group, with 10 mice into each group. Dosing solutions of each were prepared and kept refrigerated during the course of the test. Each mouse was dosed daily by oral administration.
After starting the dosing, body weights and tumor size measurements were recorded twice weekly to the end of the test.

[2] = tested on: KG-1 human acute myeloid leukemia cells; assay: Cell viability assay of Promega, KG-1 cells; assay type: cell-based; conditions: for IC50: Homo sapiens, cell viability; for Ratio (IC50-value of capecitabine/IC50-value of test compound): fold potency versus capecitabine
From the text: Using the cell viability assay of Promega, the following IC50-values were obtained against KG-1 human acute myeloid leukemia cells (Table 3). The nucleoside carbamate capecitabine (Xeloda®) is included for comparison).

HL60 = assay: NCI panel growth inhibition, HL60; assay type: cell-based; conditions: Homo sapiens, HL-60, 10 micromolar
From the text: (§1) A sample of the variety of human cancer cell lines, whose growth was inhibited more than 50% by 10 micromolar concentration of the prototype drug 6a, is shown in Table 2.
(§2) The description of the human cancer cell lines used is as follows: ACHN, human renal adenocarcinoma; HL-60(TB), human acute myeloid leukemia; HCT-116, human colon carcinoma; HOP-62, human adenocarcinoma (non-small cell lung cancer); M14, human metastatic malignant melanoma; MCF7, human mammary adenocarcinoma; OVCAR-8, human ovarian carcinoma.

NCI-H522 = assay: NCI panel growth inhibition, NCI-H522; assay type: cell-based; conditions: Homo sapiens, 10 micromolar
From the text: as §1, §2

ACHN = assay: NCI panel growth inhibition, ACHN; assay type: cell-based; conditions: Homo sapiens, 10 micromolar
From the text: as §1, §2

OVCAR-8 = assay: NCI panel growth inhibition, OVCAR-8; assay type: cell-based; conditions: Homo sapiens, 10 micromolar
From the text: as §1, §2

MCF-7 = assay: NCI panel growth inhibition, MCF-7; assay type: cell-based; conditions: Homo sapiens, MCF7, 10 micromolar
From the text: as §1, §2

M14 = assay: NCI panel growth inhibition, M14; assay type: cell-based; conditions: Homo sapiens, 10 micromolar
From the text: as §1, §2

[3] = tested on: National Cancer Institute's panel of human cell lines; assay: National Cancer Institute's panel of human cell lines in culture; assay type: cell-based; conditions: 10 micromolar, cell lines of Table 2, read-out: growth inhibition of the sampled human cancer cell lines
From the text: as §1

HCT-116 = assay: NCI panel growth inhibition, HCT-116; assay type: cell-based; conditions: Homo sapiens, 10 micromolar
From the text: as §1, §2

[4] = target: T1, ribonucleotide reductase (RR) (Homo sapiens, UniProt P23921); assay: Enzyme inhibition by intracellular metabolite: ribonucleotide reductase; assay type: biochemical; conditions: major target; inactivation by covalent bond formation at the active site
T1 sequence (P23921 1-792): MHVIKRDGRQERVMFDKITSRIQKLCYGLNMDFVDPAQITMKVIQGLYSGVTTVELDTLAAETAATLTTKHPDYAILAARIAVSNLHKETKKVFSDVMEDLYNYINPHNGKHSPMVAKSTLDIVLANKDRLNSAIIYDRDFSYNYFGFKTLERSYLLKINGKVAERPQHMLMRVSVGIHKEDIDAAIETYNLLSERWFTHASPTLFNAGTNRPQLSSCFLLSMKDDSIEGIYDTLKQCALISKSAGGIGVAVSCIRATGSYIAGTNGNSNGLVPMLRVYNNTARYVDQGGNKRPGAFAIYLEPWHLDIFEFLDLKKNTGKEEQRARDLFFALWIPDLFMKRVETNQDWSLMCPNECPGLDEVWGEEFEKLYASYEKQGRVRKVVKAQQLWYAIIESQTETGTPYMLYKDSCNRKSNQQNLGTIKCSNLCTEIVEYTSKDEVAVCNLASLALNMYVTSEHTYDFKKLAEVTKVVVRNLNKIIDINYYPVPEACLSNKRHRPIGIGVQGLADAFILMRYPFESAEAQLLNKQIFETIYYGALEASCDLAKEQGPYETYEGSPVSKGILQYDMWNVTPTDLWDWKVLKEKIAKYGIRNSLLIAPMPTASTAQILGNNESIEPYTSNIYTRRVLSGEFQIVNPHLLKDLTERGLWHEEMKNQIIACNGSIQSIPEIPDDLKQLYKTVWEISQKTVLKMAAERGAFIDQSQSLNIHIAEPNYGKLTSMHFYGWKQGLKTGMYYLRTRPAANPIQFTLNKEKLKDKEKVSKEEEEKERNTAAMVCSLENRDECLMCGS
T1 sequence (P31350 1-389 partner): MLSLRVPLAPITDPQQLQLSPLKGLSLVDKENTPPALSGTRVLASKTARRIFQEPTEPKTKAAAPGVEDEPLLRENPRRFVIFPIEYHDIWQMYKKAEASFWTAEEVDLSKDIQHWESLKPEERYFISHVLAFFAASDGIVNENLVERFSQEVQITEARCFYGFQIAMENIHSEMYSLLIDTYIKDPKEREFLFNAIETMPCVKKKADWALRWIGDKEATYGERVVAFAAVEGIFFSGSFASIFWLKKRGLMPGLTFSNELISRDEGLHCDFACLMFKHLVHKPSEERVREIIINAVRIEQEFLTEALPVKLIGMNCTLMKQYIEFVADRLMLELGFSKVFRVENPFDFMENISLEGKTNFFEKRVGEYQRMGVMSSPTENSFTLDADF
From the text: (§3) Several intracellular targets of the present disclosure were identified as essential enzymes required for the biosynthesis and function of DNA. These enzymes are susceptible for inhibition by a multitude of cellular metabolites of the present disclosure, contributing to the observed cytotoxicity.
(§4) The inhibition of the enzyme targets, TS, RR, and MTase is irreversible, due to mechanism-based inactivation caused by the inhibitory metabolites. The molecular mechanism of the inactivation involves covalent bond formation with the sulfhydryl groups of the active site cysteine residues essential for enzyme activity (see Examples 6, 7 and 8).
F3dCDP acts as a suicide substrate of the enzyme forming a binary complex between the inhibitor and the enzyme via a covalent bond to the SH-group of the active site cysteine residue: […]

[5] = target: T2, deoxycytidylate deaminase (DCTD) (Homo sapiens, UniProt P32321); assay: Enzyme inhibition by intracellular metabolite: deoxycytidylate deaminase; assay type: biochemical; conditions: minor target
T2 sequence (P32321 1-178): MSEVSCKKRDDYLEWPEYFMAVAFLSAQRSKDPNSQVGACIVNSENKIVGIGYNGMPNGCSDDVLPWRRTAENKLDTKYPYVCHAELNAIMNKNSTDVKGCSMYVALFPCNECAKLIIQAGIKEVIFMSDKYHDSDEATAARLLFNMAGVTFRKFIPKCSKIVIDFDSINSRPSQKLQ
From the text: as §3
Intracellular esterase hydrolysis of the 5′-substituent of Formula I (R″=phosphorodiamidate), followed by cyclization leads to a cyclic phosphoester intermediate that collapses into a monophosphoramidate. Further hydrolysis by the phosphoramidase activity of HINT1 results in the formation of F3dCMP, the first intracellular phosphorylated metabolite of compounds of Formula I that serves as a substrate and competitive inhibitor of the enzyme dCMP deaminase, and is a precursor of all the other inhibitory nucleotides described above (see Table 1).

[6] = target: T3, DNA polymerase alpha (Pol α) (Homo sapiens, UniProt P09884); assay: Enzyme inhibition by intracellular metabolites: DNA polymerase alpha; assay type: biochemical; conditions: major target; inhibition by DNA chain termination and/or DNA fragmentation
T3 sequence (P09884 1-1462): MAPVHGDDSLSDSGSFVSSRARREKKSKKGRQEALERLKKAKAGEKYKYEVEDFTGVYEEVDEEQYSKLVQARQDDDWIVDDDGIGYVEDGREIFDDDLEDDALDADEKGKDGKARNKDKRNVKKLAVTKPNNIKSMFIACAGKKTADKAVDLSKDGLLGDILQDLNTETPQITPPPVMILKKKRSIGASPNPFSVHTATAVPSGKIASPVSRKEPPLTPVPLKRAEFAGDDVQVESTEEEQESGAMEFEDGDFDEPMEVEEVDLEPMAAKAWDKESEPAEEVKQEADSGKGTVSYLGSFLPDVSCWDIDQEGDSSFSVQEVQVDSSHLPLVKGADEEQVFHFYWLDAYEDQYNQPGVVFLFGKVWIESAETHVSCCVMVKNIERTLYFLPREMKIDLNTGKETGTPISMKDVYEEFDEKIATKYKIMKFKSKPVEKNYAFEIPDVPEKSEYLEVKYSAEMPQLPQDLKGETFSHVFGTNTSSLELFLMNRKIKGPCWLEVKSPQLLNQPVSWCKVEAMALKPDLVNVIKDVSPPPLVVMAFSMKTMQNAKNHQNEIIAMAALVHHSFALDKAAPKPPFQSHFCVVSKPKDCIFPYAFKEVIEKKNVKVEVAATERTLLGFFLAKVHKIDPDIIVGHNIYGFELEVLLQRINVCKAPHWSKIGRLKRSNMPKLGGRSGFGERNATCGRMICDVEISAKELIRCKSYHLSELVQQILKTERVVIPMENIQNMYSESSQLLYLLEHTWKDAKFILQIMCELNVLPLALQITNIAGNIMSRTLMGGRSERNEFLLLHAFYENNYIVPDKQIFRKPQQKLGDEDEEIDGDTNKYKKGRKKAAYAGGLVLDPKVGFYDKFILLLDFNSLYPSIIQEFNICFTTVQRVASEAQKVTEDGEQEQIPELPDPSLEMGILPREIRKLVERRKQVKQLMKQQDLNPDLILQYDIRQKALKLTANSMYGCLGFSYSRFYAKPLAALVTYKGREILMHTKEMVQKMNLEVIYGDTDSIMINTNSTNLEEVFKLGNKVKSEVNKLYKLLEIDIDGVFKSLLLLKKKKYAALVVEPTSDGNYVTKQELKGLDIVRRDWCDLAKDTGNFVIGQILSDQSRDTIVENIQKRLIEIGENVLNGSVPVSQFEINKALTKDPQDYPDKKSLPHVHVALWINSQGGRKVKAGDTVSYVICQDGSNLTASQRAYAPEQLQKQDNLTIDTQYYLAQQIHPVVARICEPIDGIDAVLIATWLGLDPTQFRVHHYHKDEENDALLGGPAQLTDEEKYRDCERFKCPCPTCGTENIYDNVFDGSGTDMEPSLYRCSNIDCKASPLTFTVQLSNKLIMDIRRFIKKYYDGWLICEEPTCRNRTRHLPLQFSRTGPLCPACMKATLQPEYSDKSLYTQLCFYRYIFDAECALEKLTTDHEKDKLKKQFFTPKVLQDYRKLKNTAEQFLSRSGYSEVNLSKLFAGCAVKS
From the text: as §3

[7] = target: thymidylate synthase (TS) (Homo sapiens, UniProt P04818); assay: Enzyme inhibition by intracellular metabolite: thymidylate synthase; assay type: biochemical; conditions: major target; inactivation by covalent bond formation at the active site
From the text: as §3, §4
F3dUMP acts as a suicide substrate of the enzyme thymidylate synthase by forming a covalent ternary complex with the enzyme and the cofactor 5,10-methylenetetrahydrofolate. The binding of the inhibitor to the enzyme is by a covalent bond to the SH-group of the active site cysteine residue involved in catalysis: […]

Sequence of thymidylate synthase (TS) (P04818 whole entry): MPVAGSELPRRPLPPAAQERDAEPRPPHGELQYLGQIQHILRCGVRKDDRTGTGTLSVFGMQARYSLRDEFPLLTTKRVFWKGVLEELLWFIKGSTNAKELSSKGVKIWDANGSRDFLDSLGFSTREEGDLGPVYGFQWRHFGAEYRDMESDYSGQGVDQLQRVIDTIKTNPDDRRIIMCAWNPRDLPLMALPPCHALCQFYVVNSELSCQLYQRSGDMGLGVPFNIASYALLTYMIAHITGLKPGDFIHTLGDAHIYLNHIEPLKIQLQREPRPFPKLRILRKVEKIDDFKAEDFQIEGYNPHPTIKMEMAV

CCCCCOC(=O)Nc1nc(=O)n([C@@H]2O[C@H](C)[C@@H](O)[C@H]2O)cc1F [Capecitabine, capecitabine, reference compound]
dose of capecitabine required for anticancer activity comparable to 6a, relative to dose of 6a ([1]; capecitabine 100 mg/kg vs 6a 25 mg/kg, oral): about 4 times
IC50 [2]: 8920 ± 1540 nM
Ratio (IC50-value of capecitabine/IC50-value of test compound) [2]: 1

Nc1nc(=O)n([C@@H]2O[C@H](CO)[C@@H](O)C2(F)F)cc1F [Compound 5, 2′-Deoxy-2′,2′,5-trifluorocytidine]
IC50 [2]: 34.1 ± 5.27 nM
Ratio (IC50-value of capecitabine/IC50-value of test compound) [2]: 253

CCCCCOC(=O)Nc1nc(=O)n([C@@H]2O[C@H](CO)[C@@H](O)C2(F)F)cc1F [Compound 6a, N^4-Pentyloxycarbonyl-2′-deoxy-2′,2′,5-trifluorocytidine]
inhibition at 10 µM (HL60): 75.8%
inhibition at 10 µM (NCI-H522): 61.1%
inhibition at 10 µM (ACHN): 86.4%
inhibition at 10 µM (OVCAR-8): 71.6%
in vivo oral anticancer activity (growth of human colon cancer in mice) ([1]; athymic nude mice, daily oral dosing, 25 mg/kg): orally active in vivo
inhibition at 10 µM (MCF-7): 51.9%
inhibition at 10 µM (M14): 85.9%
inhibition at 10 µM [3]: > 50%
IC50 [2]: 129 ± 10.7 nM
Ratio (IC50-value of capecitabine/IC50-value of test compound) [2]: 69
inhibition at 10 µM (HCT-116): 63.5%

Nc1nc(=O)n([C@@H]2O[C@H](COP(=O)(O)OP(=O)(O)O)[C@@H](O)C2(F)F)cc1F [Compound F3dCDP, 2′,2′,5-trifluorodeoxycytidine diphosphate]
Reversibility of inhibition of RR [4]: Irreversible*

Nc1nc(=O)n([C@@H]2O[C@H](COP(=O)(O)O)[C@@H](O)C2(F)F)cc1F [Compound F3dCMP, 2′,2′,5-trifluorodeoxycytidine monophosphate]
Reversibility of inhibition of DCTD [5]: reversible

Nc1nc(=O)n([C@@H]2O[C@H](COP(=O)(O)OP(=O)(O)OP(=O)(O)O)[C@@H](O)C2(F)F)cc1F [Compound F3dCTP, 2′,2′,5-trifluorodeoxycytidine triphosphate]
Reversibility of inhibition of Pol α [6]: Irreversible**

O=c1[nH]c(=O)n([C@@H]2O[C@H](COP(=O)(O)O)[C@@H](O)C2(F)F)cc1F [Compound F3dUMP, 2′,2′,5-trifluorodeoxyuridine monophosphate]
Reversibility of inhibition of TS [7]: Irreversible*

O=c1[nH]c(=O)n([C@@H]2O[C@H](COP(=O)(O)OP(=O)(O)OP(=O)(O)O)[C@@H](O)C2(F)F)cc1F [Compound F3dUTP, 2′,2′,5-trifluorodeoxyuridine triphosphate]
Reversibility of inhibition of Pol α [6]: Irreversible**

O=c1[nH]c(=O)n([C@H]2C[C@H](O)[C@@H](CO)O2)cc1C(F)(F)F [Compound F3dUrd]
substrate activity for thymidine phosphorylase (cleavage to produce FU) (thymidine phosphorylase): did not serve as a substrate for thymidine phosphorylase

O=c1[nH]c(=O)n([C@H]2C[C@H](O)[C@@H](CO)O2)cc1F [Floxuridine, reference compound]
substrate activity for thymidine phosphorylase (cleavage to produce FU) (thymidine phosphorylase): rapidly cleaved by thymidine phosphorylase to produce FU
